Our source for the EC50 values is patent publication US11078170B2 (Assembly Biosciences, Inc., priority 2017, dated 2021).

The structures appear in SMILES notation.

The experiment concerns HBV viral production from HepAD38 cells. Briefly: Activity of test compounds on viral production from HepAD38 cells (viral load by qPCR of HBV core sequence in supernatant). The conditions noted are these: Hepatitis B virus, 120 h, 5 days incubation, HBV DNA in supernatant by qPCR, top concentration 10 μM, read-out: Viral Load EC50 Activity range. The experiment is classed as cell-based. Put shortly:
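EC50 and CC50 come from four-parameter fits of supernatant viral load and CellTiter-Glo viability, respectively. Viral load was measured by core-region TaqMan qPCR against HBV DNA standards and compared with DMSO controls. Tet-free HepAD38 cells (50,000/well, 2% FBS) were exposed to compound, highest 10 μM, for 5 days at 37° C.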

In the case of `O=C(Nc1ccc(F)c(Cl)c1)[C@@H]1C[C@H](c2nccs2)NS(=O)(=O)N1CCOCc1ccccc1` [HBV-CSU-095-ISO-II, Cis-2-(2-(benzyloxy)ethyl)-N-(3-chloro-4-fluorophenyl)-5-(thiazol-2-yl)-1,2,6-thiadiazinane-3-carboxamide 1,1-dioxide], the EC50 (commonly the concentration giving half of the maximal effect) lay within 1000 to 5000 nM.
To `CN1C(C(=O)Nc2ccc(F)c(Cl)c2)CC(c2ccc3c(c2)ncn3C)NS1(=O)=O` (racemic) [HBV-CSU-360, Cis-N-(3-chloro-4-fluorophenyl)-2-methyl-5-(1-methyl-1H-benzo[d]imidazol-5-yl)-1,2,6-thiadiazinane-3-carboxamide 1,1-dioxide] belongs under 1000 nM; to `CN1[C@@H](C(=O)Nc2cc(F)c(F)c(F)c2)C[C@@H](c2ccc(F)cc2)NS1(=O)=O` [HBV-CSU-212-ISO-II, Cis-5-(4-Fluorophenyl)-2-methyl-N-(3,4,5-trifluorophenyl)-1,2,6-thiadiazinane-3-carboxamide 1,1-dioxide], over 5000 nM.
To `CN1[C@H](C(=O)Nc2ccc(F)c(Cl)c2)C[C@H](c2ccc(-c3ccnn3C)s2)NS1(=O)=O` [HBV-CSU-271-ISO-I, Cis-N-(3-chloro-4-fluorophenyl)-2-methyl-5-(5-(1-methyl-1H-pyrazol-5-yl)thiophen-2-yl)-1,2,6-thiadiazinane-3-carboxamide 1,1-dioxide] belongs under 1000 nM; to `CN1C(C(=O)Nc2ccc(F)c(Cl)c2)CC(c2ccc(Cl)cc2)NS1(=O)=O` (stereo not drawn) [HBV-CSU-265, Cis-N-(3-Chloro-4-fluorophenyl)-5-(4-chlorophenyl)-2-methyl-1,2,6-thiadiazinane-3-carboxamide 1,1-dioxide], under 1000 nM.
To `Cc1ccc([C@H]2C[C@@H](C(=O)Nc3ccc(F)c(Cl)c3)N(C)S(=O)(=O)N2)s1` [HBV-CSU-115-ISO-I, Cis-N-(3-chloro-4-fluorophenyl)-2-methyl-5-(5-methylthiophen-2-yl)-1,2,6-thiadiazinane-3-carboxamide 1,1-dioxide] belongs under 1000 nM; to `CN1C(C(=O)Nc2ccc(F)c(Cl)c2)CC(c2ccc(-c3cnn(C)c3)cc2)NS1(=O)=O` (racemic) [HBV-CSU-246, Cis-N-(3-Chloro-4-fluorophenyl)-2-methyl-5-(4-(1-methyl-1H-pyrazol-4-yl)phenyl)-1,2,6-thiadiazinane-3-carboxamide 1,1-dioxide], under 1000 nM; to `CN1[C@H](C(=O)Nc2ccc(F)c(Cl)c2)C[C@H](c2ccc(-c3ccc(C#N)c(F)c3)s2)NS1(=O)=O` [HBV-CSU-156-ISO-I, Cis-N-(3-chloro-4-fluorophenyl)-5-(5-(4-cyano-3-fluorophenyl)thiophen-2-yl)-2-methyl-1,2,6-thiadiazinane-3-carboxamide 1,1-dioxide], under 1000 nM.
`CN1[C@H](C(=O)Nc2ccc(F)c(Cl)c2)C[C@H](C2CCCC2)NS1(=O)=O` [HBV-CSU-222-ISO-I, Cis-N-(3-chloro-4-fluorophenyl)-5-cyclopentyl-2-methyl-1,2,6-thiadiazinane-3-carboxamide 1,1-dioxide]: the EC50 is under 1000 nM.
To `CN1[C@H](C(=O)Nc2ccc(F)c(Cl)c2)C[C@H](c2ccc(-c3ccccc3)s2)NS1(=O)=O` [HBV-CSU-116-ISO-I, Cis-N-(3-chloro-4-fluorophenyl)-2-methyl-5-(5-phenylthiophen-2-yl)-1,2,6-thiadiazinane-3-carboxamide 1,1-dioxide] belongs under 1000 nM; to `[2H]C1[C@]([2H])(C(=O)Nc2ccc(F)c(Cl)c2)N(C([2H])([2H])[2H])S(=O)(=O)N[C@]1([2H])c1ccc(-c2cn(C([2H])([2H])[2H])cn2)s1` (stereo in doubt) [HBV-CSU-378-ISO-II, Cis-N-(3-chloro-4-fluorophenyl)-2-(methyl-d3)-5-(5-(1-(methyl-d3)-1H-imidazol-4-yl)thiophen-2-yl)-1,2,6-thiadiazinane-3,4,5-d3-3-carboxamide 1,1-dioxide], 1000 to 5000 nM.
For the compound `CN1[C@@H](C(=O)Nc2ccc(F)c(Cl)c2)C[C@@H](c2cc(-c3ccc(F)cn3)cs2)NS1(=O)=O` (stereo in doubt) [HBV-CSU-243-ISO-I, Cis-N-(3-chloro-4-fluorophenyl)-5-(4-(5-fluoropyridin-2-yl)thiophen-2-yl)-2-methyl-1,2,6-thiadiazinane-3-carboxamide 1,1-dioxide], the EC50 is over 5000 nM.
To `Cc1nn(C)c(C)c1-c1csc([C@H]2C[C@@H](C(=O)Nc3ccc(F)c(Cl)c3)N(C)S(=O)(=O)N2)c1` [HBV-CSU-317-ISO-I, Cis-N-(3-chloro-4-fluorophenyl)-2-methyl-5-(4-(1,3,5-trimethyl-1H-pyrazol-4-yl)thiophen-2-yl)-1,2,6-thiadiazinane-3-carboxamide 1,1-dioxide] belongs under 1000 nM; to `N#CCN1[C@@H](C(=O)Nc2ccc(F)c(Cl)c2)C[C@@H](c2nccs2)NS1(=O)=O` [HBV-CSU-093-ISO-II, Cis-N-(3-Chloro-4-fluorophenyl)-2-(cyanomethyl)-5-(thiazol-2-yl)-1,2,6-thiadiazinane-3-carboxamide 1,1-dioxide], over 5000 nM; to `CCOCCN1[C@H](C(=O)Nc2ccc(F)c(Cl)c2)C[C@H](c2nccs2)NS1(=O)=O` (relative stereo) [HBV-CSU-142-ISO-II, Cis-N-(3-Chloro-4-fluorophenyl)-2-(2-ethoxyethyl)-5-(thiazol-2-yl)-1,2,6-thiadiazinane-3-carboxamide 1,1-dioxide], under 1000 nM.
With `CN1[C@@H](C(=O)Nc2ccc(F)c(Cl)c2)C[C@H](c2ccc(-c3cn(C)cn3)s2)NS1(=O)=O` [HBV-CSU-266-Trans-ISO-I, (3R,5R)-N-(3-chloro-4-fluorophenyl)-2-methyl-5-(5-(1-methyl-1H-imidazol-4-yl)thiophen-2-yl)-1,2,6-thiadiazinane-3-carboxamide 1,1-dioxide] the figure was under 1000 nM; with `CN1[C@H](C(=O)Nc2ccc(F)c(Cl)c2)C[C@H](c2cc(Br)cs2)NS1(=O)=O` [HBV-CSU-146-ISO-I, 5-(4-Bromothiophen-2-yl)-N-(3-chloro-4-fluorophenyl)-2-methyl-1,2,6-thiadiazinane-3-carboxamide 1,1-dioxide], under 1000 nM; with `CN1C(C(=O)Nc2ccc(F)c(Cl)c2)CC(c2ccc(OC(F)(F)F)cc2)NS1(=O)=O` (racemic) [HBV-CSU-232, Cis-N-(3-Chloro-4-fluorophenyl)-2-methyl-5-(4-(trifluoromethoxy)phenyl)-1,2,6-thiadiazinane-3-carboxamide 1,1-dioxide], under 1000 nM.
With `CN1[C@H](C(=O)Nc2ccc(F)c(Cl)c2)C[C@H](c2ncc(-c3ccc(Br)c(F)c3)s2)NS1(=O)=O` [HBV-CSU-173-ISO-I, Cis-5-(5-(4-Bromo-3-fluorophenyl)thiazol-2-yl)-N-(3-chloro-4-fluorophenyl)-2-methyl-1,2,6-thiadiazinane-3-carboxamide 1,1-dioxide], the EC50 is under 1000 nM.
`CN1C(C(=O)Nc2ccc(F)c(Cl)c2)CC(c2ccc(-c3ccc(C#N)c(F)c3)s2)NS1(=O)=O` (racemic) [HBV-CSU-156, Cis-N-(3-chloro-4-fluorophenyl)-5-(5-(4-cyano-3-fluorophenyl)thiophen-2-yl)-2-methyl-1,2,6-thiadiazinane-3-carboxamide 1,1-dioxide]: the EC50 is under 1000 nM.
Consider `Cc1cc(C2CC(C(=O)Nc3ccc(F)c(Cl)c3)N(C)S(=O)(=O)N2)sc1Br` (stereo not drawn) [HBV-CSU-335, Cis-5-(5-bromo-4-methylthiophen-2-yl)-N-(3-chloro-4-fluorophenyl)-2-methyl-1,2,6-thiadiazinane-3-carboxamide 1,1-dioxide], for which the EC50 was under 1000 nM.
To `CN1[C@H](C(=O)Nc2ccc(F)c(Cl)c2)C[C@@H](c2ncc(-c3cn(C)cn3)s2)NS1(=O)=O` [HBV-CSU-276-Trans-ISO-II, (3S,5S)-N-(3-chloro-4-fluorophenyl)-2-methyl-5-(5-(1-methyl-1H-imidazol-4-yl)thiazol-2-yl)-1,2,6-thiadiazinane-3-carboxamide 1,1-dioxide] belongs 1000 to 5000 nM; to `Cc1c(-c2ccc(C3CC(C(=O)Nc4ccc(F)c(Cl)c4)N(C)S(=O)(=O)N3)s2)cnn1C` (racemic) [HBV-CSU-312, Cis-N-(3-chloro-4-fluorophenyl)-5-(5-(1,5-dimethyl-1H-pyrazol-4-yl)thiophen-2-yl)-2-methyl-1,2,6-thiadiazinane-3-carboxamide 1,1-dioxide], under 1000 nM; to `CN1[C@H](C(=O)Nc2ccc(F)c(C(F)(F)F)c2)C[C@H](c2cccs2)NS1(=O)=O` [HBV-CSU-046-ISO-I, Cis-N-(4-Fluoro-3-(trifluoromethyl)phenyl)-2-methyl-5-(thiophen-2-yl)-1,2,6-thiadiazinane-3-carboxamide 1,1-dioxide], under 1000 nM.
To `CN1[C@H](C(=O)Nc2ccc(F)c(Cl)c2)C[C@H](c2cc(-c3ccc(F)cc3)cs2)NS1(=O)=O` [HBV-CSU-239-ISO-I] belongs under 1000 nM.
To `COc1ccc(-c2cnc([C@@H]3C[C@H](C(=O)Nc4ccc(F)c(Cl)c4)N(C)S(=O)(=O)N3)s2)cc1` [HBV-CSU-250-ISO-II, Cis-N-(3-Chloro-4-fluorophenyl)-5-(5-(4-methoxyphenyl)thiazol-2-yl)-2-methyl-1,2,6-thiadiazinane-3-carboxamide 1,1-dioxide] belongs 1000 to 5000 nM; to `Cc1ccc(C2CC(C(=O)Nc3ccc(F)c(Cl)c3)N(C)S(=O)(=O)N2)s1` (racemic) [HBV-CSU-115, Cis-N-(3-chloro-4-fluorophenyl)-2-methyl-5-(5-methylthiophen-2-yl)-1,2,6-thiadiazinane-3-carboxamide 1,1-dioxide], under 1000 nM; to `COc1ccccc1C1CC(C(=O)Nc2ccc(F)c(Cl)c2)N(C)S(=O)(=O)N1` (stereo not shown) [HBV-CSU-215], 1000 to 5000 nM.
